Structures can show the parent of a compound that is named as a salt.
target: Recombinant human JAK3 enzyme (JAK3 kinase region; Ala795-Ser1124) (Homo sapiens, UniProt P52333); experiment: JAK3 Kinase Assay (Kinase-Glo luminescent, ATP consumption); settings: read-out: Inhibition rate (%) of JAK3 kinase activity
Sequence (P52333 795-1124): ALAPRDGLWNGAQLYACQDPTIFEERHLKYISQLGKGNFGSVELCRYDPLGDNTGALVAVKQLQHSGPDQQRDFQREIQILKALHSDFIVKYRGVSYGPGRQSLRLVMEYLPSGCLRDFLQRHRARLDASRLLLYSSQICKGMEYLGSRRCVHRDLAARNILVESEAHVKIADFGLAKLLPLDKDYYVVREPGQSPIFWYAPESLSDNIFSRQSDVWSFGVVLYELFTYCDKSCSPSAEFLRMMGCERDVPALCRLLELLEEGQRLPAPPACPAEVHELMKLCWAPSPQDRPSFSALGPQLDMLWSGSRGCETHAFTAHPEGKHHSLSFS
Protocol: Recombinant human JAK3 enzyme (JAK3 kinase region; Ala795-Ser1124) was purchased from Carna Biosciences, Inc.
The reaction was conducted in a kinase buffer (reaction volume: a total of 50 μl) containing 8 mM MOPS (pH 7.0), 0.2 mM EDTA, a test compound solution prepared to each concentration and 0.5 μg/ml JAK3 enzyme using a 96-well polystyrene plate (clear-bottom white-wall). […] After incubating them at room temperature for 2 hours, 50 μl of Kinase-Glo Luminescent Kinase Assay reagent (Promega) was added to each well, and further incubated at room temperature for 10 minutes. Using a chemiluminescence microplate reader MicroLumat LB96P (Berthold), chemiluminescence intensity was measured to quantitate the amount of ATP remaining after reaction. From the amount of ATP consumed in the phosphorylation reaction, the inhibition rate (%) of JAK3 kinase activity was determined.

Going from `NC(=O)c1cnc(Nc2ccc(N3CCC(CCO)CC3)cc2)cc1NCc1cccc(F)c1F` [Example 178, 4-[(2,3-difluorobenzyl)amino]-6-({4-{4-(2-hydroxyethyl)piperidino]phenyl}amino)pyridine-3-carboxyamide] to `NC(=O)c1cnc(Nc2ccc(N3CCC(CCO)CC3)cc2)cc1NCc1cc(F)cc(F)c1` [Example 179], the inhibition at 0.1 µM falls from 90% to 78%.

Compared with `CC(C)S(=O)(=O)Nc1ccc(Nc2cc(NCc3ccccc3)c(C(N)=O)cn2)cc1` [Example 163, 4-(benzylamino)-6-({4-[(propan-2-ylsulfonyl)amino]phenyl}amino)pyridine-3-carboxyamide], `CC(C)S(=O)(=O)Nc1ccc(Nc2cc(NCc3cc(F)cc(F)c3)c(C(N)=O)cn2)cc1` [Example 302, 4-[(3,5-difluorobenzyl)amino]-6-({4-[(propan-2-ylsulfonyl)amino]phenyl}amino)pyridine-3-carboxyamide] is higher in inhibition at 0.1 µM: 77% for the first, 90% for the second.

Compared with `CS(=O)(=O)N1CCN(c2ccc(Nc3cc(NCc4cc(F)cc(F)c4)c(C(N)=O)cn3)cc2)CC1` [Example 293, 4-[(3,5-difluorobenzyl)amino]-6-({4-[4-(methylsulfonyl)piperazin-1-yl]phenyl}amino)pyridine-3-carboxyamide], `N#CCCN1CCN(c2ccc(Nc3cc(NCc4cc(F)cc(F)c4)c(C(N)=O)cn3)cc2)CC1` [Example 240, 6-({4-[4-(2-cyanoethyl)piperazin-1-yl]phenyl}amino)-4-[(3,5-difluorobenzyl)amino]pyridine-3-carboxyamide] is higher in inhibition at 0.1 µM: 61% for the first, 85% for the second.

Compared with `C[C@@H]1CN(c2ccc(Nc3cc(NCc4ccccc4)c(C(N)=O)cn3)cc2)C[C@H](C)N1` [Example 136, 4-(benzylamino)-6-({4-[(3R,5S)-3,5-dimethylpiperazin-1-yl]phenyl}amino)pyridine-3-carboxyamide], `C[C@@H]1CN(c2ccc(Nc3cc(NCc4cccc(F)c4F)c(C(N)=O)cn3)cc2)C[C@H](C)N1` [Example 140, 4-[(2,3-difluorobenzyl)amino]-6-({4-[(3R,5S)-3,5-dimethylpiperazin-1-yl]phenyl}amino)pyridine-3-carboxyamide] is lower in inhibition at 0.1 µM: 80% for the first, 62% for the second.

Compared with `NC(=O)c1cnc(Nc2ccc(CN3CCOCC3)cc2)cc1NCc1ccccc1` [Example 318, 4-(benzylamino)-6-{[4-(morpholinomethyl)phenyl]amino}pyridine-3-carboxyamide], `NC(=O)c1cnc(Nc2ccc(N3CCOCC3)cc2)cc1NCc1ccccc1` [Example 72, 4-(benzylamino)-6-{(4-morpholinophenyl)amino]pyridine-3-carboxyamide] is lower in inhibition at 0.1 µM: 83% for the first, 65% for the second.

First: CC(C)N1CCN(c2ccc(Nc3cc(NCc4c(F)cccc4F)c(C(N)=O)cn3)cc2)CC1 [Example 153, 4-[(2,6-difluorobenzyl)amino]-6-({4-[4-(propan-2-yl)piperazin-1-yl]phenyl}amino)pyridine-3-carboxyamide]
Second: CC(C)N1CCN(c2ccc(Nc3cc(NCc4cccc(F)c4F)c(C(N)=O)cn3)cc2)CC1 [Example 150, 4-[(2,3-difluorobenzyl)amino]-6-({4-[4-(propan-2-yl)piperazin-1-yl]phenyl}amino)pyridine-3-carboxyamide]
The inhibition at 0.1 µM of the first is higher: 94% for the first, 66% for the second.

Going from `COc1ccccc1CNc1cc(Nc2ccc(N3CCN(C(C)C)CC3)cc2)ncc1C(N)=O` [Example 147, 4-[(2-methoxybenzyl)amino]-6-({4-[4-(propan-2-yl)piperazin-1-yl]phenyl}amino)pyridine-3-carboxyamide] to `Cc1ccccc1CNc1cc(Nc2ccc(N3CCOCC3)cc2)ncc1C(N)=O` [Example 76, 4-[(2-methylbenzyl)amino]-6-[(4-morpholinophenyl)amino]pyridine-3-carboxyamide], the inhibition at 0.1 µM rises from 58% to 63%.

Compared with `NC(=O)c1cnc(Nc2ccc(N3CCOCC3)cc2)cc1NCc1cc(F)cc(F)c1` [Example 91, 4-[(3,5-difluorobenzyl)amino]-6-[(4-morpholinophenyl)amino]pyridine-3-carboxyamide], `NC(=O)c1cnc(Nc2cccc(N3CCNCC3)c2)cc1NCc1cc(F)cc(F)c1` [Example 225, 4-[(3,5-difluorobenzyl)amino]-6-{[3-(piperazin-1-yl)phenyl]amino}pyridine-3-carboxyamide] is lower in inhibition at 0.1 µM: 92% for the first, 74% for the second.

Compared with `NC(=O)c1cnc(Nc2ccc(NC(=O)C3CCNCC3)cc2)cc1NCc1cc(F)cc(F)c1` [Example 315, 4-[(3,5-difluorobenzyl)amino]-6-({4-[(piperidin-4-ylcarbonyl)amino]phenyl}amino)pyridine-3-carboxyamide hydrochloride], `NC(=O)c1cnc(Nc2ccc(C(=O)C(F)(F)F)cc2)cc1NCc1cc(F)cc(F)c1` [Example 326, 4-[(3,5-difluorobenzyl)amino]-6-{[(4-trifluoroacetyl)phenyl]amino}pyridine-3-carboxyamide] is higher in inhibition at 0.1 µM: 60% for the first, 71% for the second.

Going from `CC(C)S(=O)(=O)N1CCN(c2ccc(Nc3cc(NCc4c(F)cccc4F)c(C(N)=O)cn3)cc2)CC1` [Example 172, 4-[(2,6-difluorobenzyl)amino]-6-({4-[4-(propan-2-ylsulfonyl)piperazin-1-yl]phenyl}amino) pyridine-3-carboxyamide] to `N#CCC(=O)N1CCN(c2ccc(Nc3cc(NCc4cc(F)ccc4F)c(C(N)=O)cn3)cc2)CC1` [Example 265, 6-({4-[4-(cyanoacetyl)piperazin-1-yl]phenyl}amino)-4-[(2,5-difluorobenzyl)amino]pyridine-3-carboxyamide], the inhibition at 0.1 µM rises from 59% to 74%.

Going from `NC(=O)c1cnc(Nc2ccc(N3CCNCC3)cc2)cc1NCc1cc(F)ccc1F` [Example 222, 4-[(2,5-difluorobenzyl)amino]-6-{[4-(piperazin-1-yl)phenyl]amino}pyridine-3-carboxyamide] to `NC(=O)c1cnc(Nc2ccc(N3CCC(O)CC3)cc2)cc1NCc1cc(F)ccc1F` [Example 188, 4-[(2,5-difluorobenzyl)amino]-6-[(4-(4-hydroxypiperidino)phenyl]amino}pyridine-3-carboxyamide], the inhibition at 0.1 µM rises from 78% to 89%.

Compared with `C[C@H]1COCCN1c1ccc(Nc2cc(NCc3ccccc3)c(C(N)=O)cn2)cc1` [Example 134, 4-(benzylamino)-6-({4-[(3S)-3-methylmorpholino]phenyl}amino)pyridine-3-carboxyamide], `NC(=O)c1cnc(Nc2ccc(N3CCNCC3)cc2)cc1NCc1ccccc1` [Example 219] is lower in inhibition at 0.1 µM: 83% for the first, 65% for the second.

First: CCN(CC)C(=O)N1CCC(Nc2ccc(Nc3cc(NCc4ccccc4)c(C(N)=O)cn3)cc2)CC1 [Example 290, 4-(benzylamino)-6-[(4-{[1-(diethylcarbamoyl)piperidin-4-yl]amino}phenyl)amino]pyridine-3-carboxyamide]
Second: CCN(CC)CC(=O)N1CCN(c2ccc(Nc3cc(NCc4ccccc4)c(C(N)=O)cn3)cc2)CC1 [Example 274, 4-(benzylamino)-6-({4-[4-(N,N-diethylglycyl)piperazin-1-yl]phenyl}amino)pyridine-3-carboxyamide]
The inhibition at 0.1 µM of the first is lower: 71% for the first, 79% for the second.

First: CCN(CC)CC(=O)N1CCN(c2ccc(Nc3cc(NCc4cc(F)cc(F)c4)c(C(N)=O)cn3)cc2)CC1 [Example 275, 6-({4-[4-(N,N-diethylglycyl)piperazin-1-yl]phenyl}amino)-4-[(3,5-difluorobenzyl)amino]pyridine-3-carboxyamide]
Second: NC(=O)c1cnc(Nc2ccc(N3CCC(CCO)CC3)cc2)cc1NCc1ccccc1 [Example 57, 4-(benzylamino)-6-({4-[4-(2-hydroxyethyl)piperidino]phenyl}amino)pyridine-3-carboxyamide]
The inhibition at 0.1 µM of the first is higher: 96% for the first, 89% for the second.

First: N#CCCC1CCN(c2ccc(Nc3cc(NCc4ccccc4)c(C(N)=O)cn3)cc2)CC1 [Example 60, 4-(benzylamino)-6-({4-[4-(2-cyanoethyl)piperidino]phenyl}amino)pyridine-3-carboxyamide]
Second: NC(=O)c1cnc(Nc2ccc(N)cc2)cc1NCc1ccccc1 [Example 65, 6-[(4-aminophenyl)amino]-4-(benzylamino) pyridine-3-carboxyamide]
The inhibition at 0.1 µM of the first is lower: 65% for the first, 79% for the second.

First: CN(CCN1CCOCC1)c1ccc(Nc2cc(NCc3ccccc3)c(C(N)=O)cn2)cc1 [Example 71, 4-(benzylamino)-6-({4-[methyl(2-morpholinoethyl)amino]phenyl}amino)pyridine-3-carboxyamide]
Second: NC(=O)c1cnc(Nc2ccc(NC(=O)[C@@H]3CCCN3)cc2)cc1NCc1ccccc1 [Example 316, 4-(benzylamino)-6-({4-(L-prolylamino)phenyl]amino}pyridine-3-carboxyamide hydrochloride]
The inhibition at 0.1 µM of the first is higher: 70% for the first, 61% for the second.

Compared with `CC1CCCCC1Nc1cc(Nc2ccc(N3CCOCC3)cc2)ncc1C(N)=O` (stereo not shown) [Example 349, 4-[(2-methylcyclohexyl)amino]-6-[(4-morpholinophenyl)amino]pyridine-3-carboxyamide], `NC(=O)c1cnc(Nc2ccc(N3CCOCC3)cc2)cc1NCC1CC1` [Example 362, 4-[(cyclopropylmethyl)amino]-6-[(4-morpholinophenyl)amino]pyridine-3-carboxyamide] is lower in inhibition at 1 µM: 90% for the first, 40% for the second.

First: NC(=O)c1cnc(Nc2ccc(N3CCOCC3)cc2)cc1NC1CCOc2ccccc21 (stereo not shown) [Example 351, 4-(3,4-dihydro-2H-1-benzopyran-4-ylamino)-6-[(4-morpholinophenyl)amino]pyridine-3-carboxyamide]
Second: NC(=O)c1cnc(Nc2ccncc2)cc1NCc1ccccc1 [Example 372, 4-benzylamino-6-(pyridin-4-ylamino) pyridine-3-carboxyamide]
The inhibition at 1 µM of the first is higher: 45% for the first, 31% for the second.

same assay, conditions: test compound at 0.1 μM

With `CC(C)S(=O)(=O)N1CCN(c2cccc(Nc3cc(NCc4cc(F)cc(F)c4)c(C(N)=O)cn3)c2)CC1` [Example 174, 4-[(3,5-difluorobenzyl)amino]-6-({3-[4-(propan-2-ylsulfonyl)piperazin-1-yl]phenyl}amino) pyridine-3-carboxyamide] the “Inhibition rate (%) of JAK3 kinase activity” value was 58%.

From US8575153B2 (Kowa Company, Ltd., priority 2008, dated 2013)
